Patent US5877193A, “Use of N-(4-aryl-thiazol-2-yl)-sulfonamides” (Hoffmann-La Roche Inc., priority 1996, dated 1999)
Converted amounts (≈) assume the structure as drawn. Read-outs that look alike come from different tables or passages of the source.

Assays:
[1] = biological target: T1, kynurenin-3-hydroxylase (Rattus norvegicus, UniProt O88867); experiment: ex vivo kynurenin-3-hydroxylase inhibition in the liver after oral administration to rats; details: 2 hours; for ED50: po
T1 construct: The enzyme source is a crude rat kidney mitochondrial preparation; from tissue; host or cells: rat kidney, crude mitochondrial preparation
T1 sequence (O88867 whole entry): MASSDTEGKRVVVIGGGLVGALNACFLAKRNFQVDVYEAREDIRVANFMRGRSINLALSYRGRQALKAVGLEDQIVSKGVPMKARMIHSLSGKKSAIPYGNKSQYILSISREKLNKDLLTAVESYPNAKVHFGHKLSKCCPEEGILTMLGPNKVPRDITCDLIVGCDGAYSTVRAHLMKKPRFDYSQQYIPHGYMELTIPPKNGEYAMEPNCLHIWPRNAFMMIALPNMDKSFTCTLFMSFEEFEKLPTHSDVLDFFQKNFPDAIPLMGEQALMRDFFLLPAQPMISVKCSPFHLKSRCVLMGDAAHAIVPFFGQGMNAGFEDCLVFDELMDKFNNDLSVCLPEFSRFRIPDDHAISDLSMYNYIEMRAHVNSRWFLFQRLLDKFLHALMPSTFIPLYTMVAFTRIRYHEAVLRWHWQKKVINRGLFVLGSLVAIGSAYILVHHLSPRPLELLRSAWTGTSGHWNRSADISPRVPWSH
Experimental: (§1) Determination of kynurenin-3-hydroxylase in vitro and ex vivo
(§2) The kynurenin-3-hydroxylase inhibiting activity of the compounds in accordance with the invention can be determined in vitro and ex vivo using standard methods. The preparations to be tested were examined in the tests described hereinafter, which are based on the methods published by J. B. Erickson, E. M. Flanagan, S. Russo and J. F. Reinhard [Anal. Biochem. 1992, 205: 257-262].
The substances to be tested are administered orally to male rats of 100-140 g body weight in a dosage of 30 μmol/kg. The kidneys and a part of the liver are removed from the animals, which are decapitated after 2 hours, and frozen at -80° C. until used. In order to measure the enzyme activity, the organs are homogenized in the ratio 1:10 (weight/volume) in sucrose, containing TRIS/HCl, pH 7.4 and PMSF.
(§3) Measurement of the enzyme activity
(§4) Scheme of a typical procedure carried out in an incubation tube of appropriate size or on a microtitre plate:
(§5) 25 μl of the substance to be tested in a suitable concentration (in vitro) or homogenization buffer (ex vivo)
(§6) 25 μl of potassium phosphate buffer 0.2M containing 0.4 units of glucose-6-phosphate dehydrogenase
(§7) 25 μl of the mitochondrial preparation (in vitro) or of the kidney or liver homogenate (ex vivo)
(§8) 25 μl of the substrate L-kynurenin containing L-^3 H-3-kynurenin (0.1 μCi)
(§9) 100 μmol, magnesium chloride 4 mmol, NADPH 200 μmol, glucose-6-phosphate 3 mmol (concentration data as final concentrations)
(§10) incubation: 10 min (in vitro) or 2 min (ex vivo) at 37° C. on a shaking machine
(§11) 150 μl of a 10% suspension of active charcoal (Norit A) in water (to remove unreacted labelled substrate)
(§12) shaking for about one minute
(§13) centrifugation for 4 min at 4000 revolutions/min
(§14) transfer of 50 μl of the charcoal-free supernatant into a counting vessel
(§15) addition of 150 μl of an appropriate scintillator to count the radioactivity of the now-tritiated water, which is a measurement of the enzyme activity which exists.
The ED50 value or, where this is not achieved, the percentage inhibition after administration of a single dosage, is a measurement of the strength of the ex vivo enzyme inhibition which is brought about by the tested substances. The ED50 value is that dosage of test substance which leads to a 50% enzyme inhibition in the investigated tissue homogenates.

[2] = biological target: T1, kynurenin-3-hydroxylase; experiment: in vitro kynurenin-3-hydroxylase inhibition (crude rat kidney mitochondrial preparation); type: biochemical; details: for remaining activity at 1 µM: read-out: % of control at 1 μM; for IC50: pH 7.4
Excerpt: as §1, §2
The enzyme source is a crude rat kidney mitochondrial preparation which, taken up in the ratio 1:70 (weight/volume) in a potassium phosphate buffer of pH 7.4, containing EGTA, is kept in the frozen state at -80° C. until used. The enzyme test for the in vitro determination differs from the ex vivo determination described hereinafter by the use of the mentioned mitochondreal preparation in place of tissue homogenates as the enzyme source and by a pre-incubation of the enzyme with the substances to be tested at 37° C. for 15 min.
as §3, §4, §5, §6, §7
pre-incubation: 15 min at 37° C. (only in vitro)
as §8, §9, §10, §11, §12, §13, §14, §15
The IC50 value is a measurement of the strength of the in vitro enzyme inhibition which is brought about by the tested substances. It is the concentration of test substance which brings about a 50% inhibition of the enzyme activity.

[3] = test system: Listeria monocytogenes; experiment: antibacterial activity, MIC by microdilution; type: cell-based; details: 18 h
Experimental: (§16) Method for the determination of antibacterial activity
(§17) The minimum inhibitory concentration (MIC in μg/ml) was determined by the microdilution method in which an Isosensotest bouillon (Oxoid) was used and was complemented with 3% horse blood for Streptococcus and Listeria. The inoculation amount was approximately 5×10^5 CFU/ml. After incubation at 37° C. for 18 h the plates were evaluated at 650 nm. The MIC was determined as the lowest concentration of active substance which brought about a growth inhibition of ≥80% compared to the control.

[4] = test system: Escherichia coli; experiment: antibacterial activity, MIC by microdilution; type: cell-based; details: ATCC25922, strain ATCC 25922, BCB 1001/04, 37° C., 18 h
Experimental: as §16, §17

[5] = test system: Streptococcus pyogenes; experiment: antibacterial activity, MIC by microdilution; type: cell-based; details: 18 h
Experimental: as §16, §17

[6] = test system: Enterococcus faecalis; experiment: antibacterial activity, MIC by microdilution; type: cell-based
Experimental: as §16, §17

[7] = test system: Streptococcus pneumoniae; experiment: antibacterial activity, MIC by microdilution; type: cell-based
Experimental: as §16, §17

[8] = test system: Pseudomonas aeruginosa; experiment: antibacterial activity, MIC by microdilution; type: cell-based; details: 18 h
Experimental: as §16, §17

[9] = test system: Staphylococcus aureus; experiment: antibacterial activity, MIC by microdilution; type: cell-based
Experimental: as §16, §17

[10] = strain BK23, BCB 1003/55, 3% horse blood, 37° C., read-out: MIC
[11] = strain B15, BCB 1003/35, 3% horse blood, 37° C., read-out: MIC
[12] = ATCC29212, strain ATCC 29212, BCB 1003/28, 37° C., 18 h, read-out: MIC
[13] = ATCC49619, strain ATCC 49619, 3% horse blood, 37° C., 18 h, read-out: MIC
[14] = strain BA, BCB 1004/01, 37° C., read-out: MIC
[15] = ATCC25923, strain ATCC 25923, BCB 1003/04, 37° C., 18 h, read-out: MIC

Row | SMILES | % of control 30 μM/kg p.o in the liver [1] | remaining activity at 1 µM [2] | IC50 [2] | ED50 [1] | MIC [4] | other results
1 | O=[N+]([O-])c1cccc(-c2csc(NS(=O)(=O)c3ccc4ccccc4c3)n2)c1 [D, Naphthalene2-sulfonic acid [4(3-nitro-phenyl)-thiazol-2-yl)-amide] | 20.00% | 4% | 30 nM | – | – | –
2 | Cc1ccc(S(=O)(=O)Nc2nc(-c3cccc([N+](=O)[O-])c3)cs2)cc1 [Example 3, 4-Methyl-N-[4-(3-nitro-phenyl)-thiazol-2-yl]-benzene-sulfonamide] | 43.00% | – | 40 nM | – | – | –
3 | COc1ccc(-c2csc(NS(=O)(=O)c3ccc(C)cc3)n2)cc1OC [Example 6, N-[4-(3,4-Dimethoxy-phenyl)-thiazol-2-yl]-4-methyl-benzenesulfonamide] | 54.00% | 4.58% | 65 nM | – | – | –
4 | COc1ccc(S(=O)(=O)Nc2nc(-c3cccc([N+](=O)[O-])c3)cs2)cc1 [Example 8, 4-Methoxy-N-[4-(3-nitro-phenyl)-thiazol-2-yl]-benzenesulfonamide] | 23.00% | 5% | 44 nM | 9 µmol/kg | – | –
5 | COc1ccc(S(=O)(=O)Nc2nc(-c3cccc([N+](=O)[O-])c3)cs2)cc1OC [Example 21, 3,4-Dimethoxy-N-[4-(3-nitro-phenyl)-thiazol-2-yl]-benzenesulfonamide] | 10.00% | 2% | 26 nM | 4.7 µmol/kg | – | –
6 | Cc1ccc(S(=O)(=O)Nc2nc(-c3cc(C(F)(F)F)ccc3F)cs2)cc1 [Example 32, N-[4-(2-Fluoro-5-trifluoromethyl-phenyl)-thiazol-2-yl]-4-methyl-benzenesulfonamide] | – | 2.5% | 43 nM | 17 µmol/kg | – | –
7 | COc1ccc(S(=O)(=O)Nc2nc(-c3cc(C(F)(F)F)ccc3F)cs2)cc1 [Example 41, N-[4-(2-fluoro-5-trifluoromethyl-phenyl)-thiazol-2-yl]-4-methoxy-benzenesulfonamide] | – | 18% | 50 nM | 17 µmol/kg | – | –
8 | Nc1ccc(S(=O)(=O)Nc2nc(-c3cc(C(F)(F)F)ccc3F)cs2)cc1 [Example 42, 4-Amino-N-[4-(2-fluoro-5-trifluoromethyl-phenyl)-thiazol-2-yl]benzenesulfonamide] | – | 1.4% | 15 nM | 4.6 µmol/kg | 256 µg/mL (≈ 613 µM) | MIC [3, 10]: > 256 µg/mL; MIC [5, 11]: 16 µg/mL (≈ 38.3 µM); MIC [6, 12]: > 256 µg/mL; MIC [7, 13]: > 256 µg/mL; MIC [8, 14]: > 256 µg/mL; MIC [9, 15]: 16 µg/mL (≈ 38.3 µM)
9 | COc1ccc(S(=O)(=O)Nc2nc(-c3cc(C(F)(F)F)ccc3F)cs2)cc1OC [Example 46, 3,4-Dimethoxy-N-[4-(2-fluoro-5-trifluoromethyl-phenyl)-thiazol-2-yl]benzenesulfonamide] | – | 4.7% | 22 nM | 5.3 µmol/kg | > 256 µg/mL | MIC [3, 10]: > 256 µg/mL; MIC [5, 11]: 64 µg/mL (≈ 138 µM); MIC [6, 12]: > 256 µg/mL; MIC [7, 13]: > 256 µg/mL; MIC [8, 14]: > 256 µg/mL; MIC [9, 15]: 32 µg/mL (≈ 69.2 µM)
10 | Cc1cc(NS(=O)(=O)c2ccc(N)cc2)no1 [SMZ, sulfamethoxazole, reference compound] | – | – | – | – | 128 µg/mL (≈ 505 µM) | MIC [3]: > 256 µg/mL; MIC [5]: 16 µg/mL (≈ 63.2 µM); MIC ([6]; ATCC29212, 18 h): > 256 µg/mL; MIC ([7]; ATCC49619, 18 h): > 256 µg/mL; MIC [8]: > 256 µg/mL; MIC ([9]; ATCC25923, 18 h): 32 µg/mL (≈ 126 µM)
11 | COc1cc(Cc2cnc(N)nc2N)cc(OC)c1OC [TMP, trimethoprim, reference compound] | – | – | – | – | 1 µg/mL (≈ 3.44 µM) | MIC [3, 10]: 0.25 µg/mL (≈ 0.861 µM); MIC [5, 11]: 2 µg/mL (≈ 6.89 µM); MIC ([6]; ATCC29212, 18 h): 0.125 µg/mL (≈ 0.431 µM); MIC [7, 13]: 4 µg/mL (≈ 13.8 µM); MIC [8, 14]: 8 µg/mL (≈ 27.6 µM); MIC [9, 15]: 0.5 µg/mL (≈ 1.72 µM)
